Results on two molecules are retold here after patent US9499538B2, “Estrogen receptor modulators and uses thereof” (Seragon Pharmaceuticals, Inc., priority 2012, dated 2016).

Assay [1] deals with T1, ER-α in MCF-7 cells (Homo sapiens, UniProt P03372).
T1 construct: endogenous in cells; host or cells: MCF-7
T1 sequence (P03372 1-595): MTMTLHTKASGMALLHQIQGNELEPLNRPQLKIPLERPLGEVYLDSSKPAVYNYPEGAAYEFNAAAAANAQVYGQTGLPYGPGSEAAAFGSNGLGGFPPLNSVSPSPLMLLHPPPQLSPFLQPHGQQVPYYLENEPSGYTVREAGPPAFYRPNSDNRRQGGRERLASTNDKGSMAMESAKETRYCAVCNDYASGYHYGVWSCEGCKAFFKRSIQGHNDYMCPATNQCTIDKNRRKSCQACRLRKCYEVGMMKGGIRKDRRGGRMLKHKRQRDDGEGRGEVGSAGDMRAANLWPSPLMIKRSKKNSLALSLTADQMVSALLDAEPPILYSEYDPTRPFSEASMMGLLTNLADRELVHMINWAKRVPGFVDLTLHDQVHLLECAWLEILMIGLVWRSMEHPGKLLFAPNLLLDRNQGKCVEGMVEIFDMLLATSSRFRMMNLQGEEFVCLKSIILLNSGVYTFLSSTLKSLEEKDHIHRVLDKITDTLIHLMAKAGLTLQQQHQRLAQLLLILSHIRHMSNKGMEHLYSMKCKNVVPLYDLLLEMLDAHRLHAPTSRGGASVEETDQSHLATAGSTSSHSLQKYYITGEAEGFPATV
Briefly: Breast Cancer Cell ER-α In Cell Western Assay (SP1). In kind it is cell-based. Particulars: 4 or 24 hr post compound addition; for Emax: MCF7, SP1 antibody, read-out: ER-α In Cell Western Assay (SP1) Max Response; for DC50: SP1 antibody, read-out: ER-α In Cell Western Assay (SP1) IC50. Summed up: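 MCF-7 cells in charcoal-stripped FBS medium, treated with 11-point semilog dilutions (0.3–0.000003 μM final) for 4 or 24 h. Fixed cells immunostained with SP1 antibody (800 nm) and DRAQ5 DNA (700 nm); ER/DNA ratio expressed as % of untreated cells.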

The test system of assay [2] is MCF-7 cells. Description: Breast Cancer Cell Viability Assays (MCF-7, CellTiter-Glo). It counts as cell-based. Particulars: 5 days' compound exposure; for IC50: Homo sapiens, MCF7, 120 h. Summed up: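 MCF-7 cells (320/well, RPMI with 10% FBS) exposed for 5 days to an eleven-point semilog series, 0.3–0.000003 μM final. Viability read by CellTiter-Glo luminescence, expressed as background-corrected percent of untreated cells.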
In general terms: Cellular ATP, detected with luciferase, serves as a proxy for viable cell number.

Structures are written as SMILES. Some results are limits rather than exact numbers.

The term IC50 denotes the point on the concentration scale where inhibition reaches its midpoint. As for `Fc1n[nH]c2ccc(/C(=C(/c3ccccc3)C3CCC3)c3ccc(/C=C/c4ncc[nH]4)cc3)cc12` [Example 285, 5-((E)-1-(4-((E)-2-(1H-Imidazol-2-yl)vinyl)phenyl)-2-cyclobutyl-2-phenylvinyl)-3-fluoro-1H-indazole], in assay [1], the Emax is at least 40% and the DC50 was at most 100 nM. Further, in assay [2], the “MCF7 Viability Assay Max Response” value was “++ (++ = a single % value ≧ 40%)” and the IC50 is at most 100 nM.

Regarding `Fc1n[nH]c2ccc(/C(=C(/c3ccccc3)C3CCC3)c3ccc(/C=C/c4cnn[nH]4)cc3)cc12` [Example 286, 5-((E)-1-(4-((E)-2-(1H-1,2,3-Triazol-5-yl)vinyl)phenyl)-2-cyclobutyl-2-phenylvinyl)-3-fluoro-1H-indazole], in assay [1], the Emax is at least 40% and the DC50 was at most 100 nM. In assay [2], the “MCF7 Viability Assay Max Response” value is listed as “++ (++ = a single % value ≧ 40%)” and the IC50 is at most 100 nM.
